Test system: PGE2
Assay: PGE2 levels in tears and cornea of rabbits by ELISA
Assay type: in vivo, rabbit
Description: The effects of PS, ketorolac and dicofenac (the latter two ophthalmic NSAIDs known to induce corneal melt) on the tear levels of PGE2 in rabbits with concanavalin A-induced dry eye were compared. Three eye drops of PS 1.5% or of commercially available ketorolac 0.5% were given at 0 time, and 1 h later to rabbits with concanavalin A-induced DED. Tears were obtained at 2 h and the levels of PGE2 were determined by ELISA. PGE2 in tears of naïve rabbits (not exposed to concanavalin A nor treated) was also measured. The PGE2 levels (mean±SEM) were: Naïve, 110.4±12.6 ng/ml; PS-treated, 115.4±15.8 ng/ml; Ketorolac-treated, 77.7±8.7 ng/ml. The difference in PS vs. ketorolac was significant, p<0.02; as was the difference in ketorolac vs naïve, p<0.03. Regarding this parameter, PS differs radically form ketorolac, which induces corneal melt.
Levels of PGE2 in the corneas of three groups of rabbits were determined by ELISA. Rabbits were treated with PS 1.6% or ketorolac 0.5% eye drops topically applied to their eyes or were not treated (naïve group). Results in pg/mg protein (mean±SEM). Naïve=787.3±96.3; PS=880.6±110.3; Ketrolorac=247.2±187.4 (p<0.01 vs PS).
Rabbits with DED induced by concanavalin A as above were treated for 6 days with vehicle, or PS 2.3% or ketorolac 0.5% or diclofenac 0.1%. Compared to the vehicle group, on day 6 the PGE2 levels in the cornea were 106% of the vehicle value in the PS group (not a statistically significant difference), 1.3% in the ketorolac group (p<0.0001 vs. vehicle, and 2.3% in the diclofenac group (p<0.0001 vs. vehicle).
It was determined that the levels of PGE2 in rabbit tears in three groups of rabbits, naïve and those with Con A-induced DED that were treated for 1 week either with PS or vehicle.
In an acute experiment, administered once topically to the eyes of four groups of rabbits with Con A-induced DED was one of the following: vehicle, PS, ketorolac or diclofenac; the latter two are NSAIDs used for the treatment of ocular inflammation and pain. It was determined that the levels of PGE2 in the cornea of these rabbits obtained 1 h later as well as in the corneas of naïve rabbits.

CCOP(=O)(OCC)OCCCCOC(=O)CC1=C(C)/C(=C/c2ccc([S+](C)[O-])cc2)c2ccc(F)cc21 (centres unmarked) [PS, phosphosulindac]
PGE2 levels in tears (Con A DED rabbits treated for 1 week, FIG. 9A): slightly lower than (but not significantly different from) those of naïve rabbits | PGE2 levels in the cornea (Con A DED rabbits, administered once topically, 1 h later, FIG. 9B): no different than those of vehicle-treated and naïve rabbits | PGE2 levels in the cornea, % of the vehicle value (Con A DED rabbits, day 6, PS 2.3%, ketorolac 0.5%, diclofenac 0.1%): 106% | PGE2 levels in tears (Con A DED rabbits, three eye drops at 0 and 1 h, tears at 2 h, PS 1.5%, ketorolac 0.5%, mean±SEM): 115.4 ± 15.8 ng/mL | PGE2 levels in the corneas (rabbits, PS 1.6% or ketorolac 0.5% eye drops, mean±SEM): 880.6±110.3 pg/mg protein
